Like-named read-outs stand apart in the source and are kept apart here.

A short description of data set [1]: Cytotoxicity in TZM-bl cells (XTT). The data set is classed as cell-based. The following applies: human, XTT, 3 days. The method, then: (§1) The cytotoxicity of test compounds in TZM-bl cells was also measured by the XTT method described previously^7. […] The soluble intracellular formazan was quantitated colorimetrically at 450 nm 4 h later. The percent of cytotoxicity and the CC50 values were calculated as above. (See Table 4)

Data set [2] deals with HIV-1 pseudovirus pseudotyped with HXB2 Env. Put plainly: microbe, parasite or virus in culture. The data set is classed as cell-based. The following applies: single cycle assay, TZM-bl cells infected with HIV-1 pseudovirus pseudotyped with HXB2 Env.
The target in the next data set is T1, HIV-1 Integrase (Human immunodeficiency virus type 1 group M subtype B, UniProt P04585).
T1 construct: HIV-1 Integrase Assay Kit from ExpressBio; purchased ExpressBio (Thurnmont, Md.)
Put plainly: HIV-1 Integrase Assay (ExpressBio kit). The data set is classed as biochemical. The method, then:
HIV-1 Integrase was performed as per the protocol in the HIV-1 Integrase Assay Kit from ExpressBio (Thurnmont, Md.). (See Table 3)

A further data set deals with TZM-bl cells. The data set can be described thus: Cytotoxicity in TZM-bl cells (XTT). The data set is classed as cell-based. The following applies: for CC50: XTT, 3 days. The procedure: as §1
For data set [3], the system named is panel of HIV-1 ENV-pseudoviruses (subtype A, A/D, A2/D, A/E, A/G, B, C and D). The data set can be described thus: microbe, parasite or virus in culture. The data set is classed as cell-based.
Where [4] appears, read: Human immunodeficiency virus 1, HXB2, TZM-bl.

With `CNCC(NC(=O)c1ccc(-c2ccc(Cl)c(F)c2)[nH]1)c1nc(C)c(CO)s1` (single isomer, unassigned) [Compound 56], the cytotoxic concentration (CC50) at 3 days in data set [1] is ~21 µM. The IC50 in data set [2] was 1.6 ± 0.6 µM.

`Cc1nc(C(CN(C)C)NC(=O)c2ccc(-c3ccc(Cl)cc3)[nH]2)sc1CO` (single isomer, unassigned) [Compound 62]: in data set [1], the CC50 at 3 days is > 40 µM. Moreover, the IC50 in data set [2] (setting [4]) was found to be 22 ± 3.8 µM.

In the case of `Cc1ccc(-c2ccc(C(=O)NC(CN(C)C)c3nc(C)c(CO)s3)[nH]2)cc1F` (single isomer, unassigned) [Compound 64], the CC50 at 3 days in data set [1] was ~40 µM. In data set [2], the IC50 was ~40 µM.

On to `Cc1nc(C(CN(C)C)NC(=O)c2ccc(-c3ccc(Cl)c(F)c3)[nH]2)sc1CO` (single isomer, unassigned) [Compound 67], for which, in data set [1], the CC50 at 3 days was ~29 µM.

In data set [1], `Cc1ccc(-c2ccc(C(=O)NC(CCN(C)C)c3nc(C)c(CO)s3)[nH]2)cc1F` (single isomer, unassigned) [Compound 72] gave a 50% cytotoxic concentration (CC50) at 3 days of 36.4 ± 1 µM.

On to `Cc1nc(C(CCN(C)C)NC(=O)c2ccc(-c3ccc(Cl)c(F)c3)[nH]2)sc1CO` (single isomer, unassigned) [Compound 74], for which the CC50 at 3 days in data set [1] is 22 ± 1 µM. For the same compound, the IC50 in data set [2] was 4.6 ± 0.2 µM.

Consider `Cc1nc(C(CCN(C)C)NC(=O)c2ccc(-c3ccc(Cl)cc3)[nH]2)sc1CO` (single isomer, unassigned) [Compound 76], for which the CC50 at 3 days in data set [1] came out at 21.7 ± 1 µM.

As to `CNCCC(NC(=O)c1ccc(-c2ccc(C)c(F)c2)[nH]1)c1nc(C)c(CO)s1` (single isomer, unassigned) [Compound 78], half-maximal cytotoxicity in data set [1] (CC50 at 3 days) was put at 36.4 ± 2.6 µM. In data set [2], the IC50 turned out to be 10.4 ± 0.2 µM.

Take `CNCCC(NC(=O)c1ccc(-c2ccc(Cl)c(F)c2)[nH]1)c1nc(C)c(CO)s1` (single isomer, unassigned) [Compound 80]: the CC50 at 3 days in data set [1] was determined as 22.3 ± 0.6 µM. In data set [2], this compound displayed an IC50 of 9.1 ± 1.1 µM.

In turn, `CNCCC(NC(=O)c1ccc(-c2ccc(Cl)cc2)[nH]1)c1nc(C)c(CO)s1` (single isomer, unassigned) [Compound 82] returned a CC50 at 3 days in data set [1] of 23 ± 1.2 µM. Also, the IC50 in data set [2] is 18.6 ± 1.5 µM.

In the case of `Cc1ccc(-c2ccc(C(=O)NC(CCN)c3nc(C)c(CO)s3)[nH]2)cc1F` (single isomer, unassigned) [Compound 84], the CC50 at 3 days in data set [1] came out at 47 ± 0.6 µM. Moreover, in data set [2], the IC50 was found to be 18.2 ± 2.6 µM.

Turning to `Cc1nc(C(CCN)NC(=O)c2ccc(-c3ccc(Cl)c(F)c3)[nH]2)sc1CO` (single isomer, unassigned) [Compound 86], the CC50 at 3 days in data set [1] is 22.9 ± 0.6 µM.

Turning to `Cc1nc(C(CCN)NC(=O)c2ccc(-c3ccc(Cl)cc3)[nH]2)sc1CO` (single isomer, unassigned) [Compound 88], the CC50 at 3 days in data set [1] was found to be 41 ± 1.1 µM. Besides, the IC50 in data set [2] worked out at 18.7 ± 0.7 µM.

For the compound `NCC(NC(=O)c1ccc(-c2ccc(Cl)c(F)c2)[nH]1)c1ncc(CO)s1` (single isomer, unassigned) [Compound 90], the IC50 against HIV-1 Integrase was > 100 µM. The same compound came in with a CC50 in the data set on TZM-bl cells of 37.4 ± 0.3 µM.

For `Cc1nc(C(CN)NC(=O)c2cnc(-c3ccc(Cl)cc3)[nH]2)sc1CO` (single isomer, unassigned) [Compound 93], in data set [1], the CC50 at 3 days is > 51 µM.

Regarding `Cc1nc(C(CN)NC(=O)c2ncc(-c3ccc(Cl)cc3)[nH]2)sc1CO` (single isomer, unassigned) [Compound 95], the CC50 at 3 days in data set [1] was > 51 µM.

For the compound `Cc1cc(C(=O)NC(CN)c2nc(C)c(CO)s2)[nH]c1-c1ccc(Cl)cc1` (single isomer, unassigned) [Compound 97], the CC50 at 3 days in data set [1] was 5.2 ± 0.3 µM.

Take `Cc1ccc(-c2ccc(C(=O)NC(CN)c3ncc(CO)s3)[nH]2)cc1F` (single isomer, unassigned) [Compound 99]: the IC50 came out at 1.1 ± 0.2 µM in data set [3] (Human immunodeficiency virus 1, TZM-bl, read-out: IC50 (μM) ± S.D., subtype A, ENV KNH1144) and 0.99 ± 0.1 µM in data set [3] (subtype A, ENV BG505-T332N, read-out: IC50 (μM) ± S.D.). The compound further displayed a CC50 with TZM-bl cells of 38.8 ± 0.8 µM.

With `NCC(NC(=O)c1ccc(-c2ccc(Cl)c(F)c2)[nH]1)c1ncc(CO)s1` (single isomer, unassigned) [Compound 101], in data set [1], the CC50 at 3 days is 30.8 ± 1.9 µM. Besides, in data set [2], the IC50 was found to be 0.57 ± 0.01 µM.

In turn, `NCC(NC(=O)c1ccc(-c2ccc(Cl)cc2)[nH]1)c1ncc(CO)s1` (single isomer, unassigned) [Compound 104] came in with a CC50 at 3 days in data set [1] of 38 ± 1.5 µM. Moreover, in data set [2], the IC50 was found to be 1.3 ± 0.1 µM.

`COc1cc(C(=O)NC(CN)c2nc(C)c(CO)s2)[nH]c1-c1ccc(Cl)cc1` (single isomer, unassigned) [Compound 105] gave a CC50 at 3 days in data set [1] of 16.7 ± 0.1 µM. Also, in data set [2] (setting [4]), the IC50 turned out to be 8.8 ± 0.5 µM.

With `Cc1nc(C(NC(=O)c2ccc(-c3ccc(Cl)cc3)[nH]2)C(C)(C)N)sc1CO` (single isomer, unassigned) [Compound 109], in data set [1], the CC50 at 3 days came to 22.1 ± 1.8 µM. Besides, the IC50 in data set [2] (setting [4]) was found to be 1.4 ± 0.5 µM.

Regarding `Cc1nc(C(NC(=O)c2ccc(-c3ccc(Cl)c(F)c3)[nH]2)C(C)(C)N)sc1CO` (single isomer, unassigned) [Compound 111], the CC50 at 3 days in data set [1] was determined as 14 ± 0.4 µM. The IC50 in data set [2] (setting [4]) was 0.44 ± 0.03 µM.

Consider `Cc1ccc(-c2ccc(C(=O)NC(c3nc(C)c(CO)s3)C(C)(C)N)[nH]2)cc1F` (single isomer, unassigned) [Compound 113], for which, in data set [1], the CC50 at 3 days worked out at 17.1 ± 0.6 µM. For the same compound, in data set [2], the IC50 was determined as 1.1 ± 0.1 µM.

In data set [1], `CNCC(NC(=O)c1ccc(-c2ccc(C)c(F)c2)[nH]1)c1ncc(CO)s1` (single isomer, unassigned) [Compound 118] came in with a CC50 at 3 days of 21 ± 0.8 µM. The IC50 in data set [2] turned out to be 2 ± 0.3 µM.

Take `NCC(NC(=O)c1ccc(-c2cc(F)c(Cl)c(F)c2)[nH]1)c1ncc(CO)s1` (single isomer, unassigned) [Compound 119]: the CC50 at 3 days in data set [1] came to 18 ± 0.5 µM.

As for `NCC(NC(=O)c1ccc(-c2cc(F)c(Cl)c(F)c2)[nH]1)c1ncc(CO)s1` (single isomer, unassigned) [Compound 120], the IC50 in data set [3] (Human immunodeficiency virus 1, TZM-bl, read-out: IC50 (μM) ± S.D., subtype A2/D, NIH # 11905, ENV QG393.60M.ENV.A1) was 1 ± 0.06 µM. Moreover, in the data set on TZM-bl cells, the CC50 came out at 31.4 ± 1.1 µM.

As to `Cc1nc(C(CN)NC(=O)c2ccc(-c3ccc(F)c(F)c3)[nH]2)sc1CO` (single isomer, unassigned) [Compound 121], the “percentage in brackets after CC50 >51” value with TZM-bl cells (printed "(30%)" without explanation, presumably toxicity at 51 μM) is recorded as 30%. In data set [1], the CC50 at 3 days is > 51 µM. Besides, the IC50 in data set [2] (setting [4]) worked out at 3.4 ± 0.7 µM.

With `CC(C)(N)C(NC(=O)c1ccc(-c2ccc(Cl)c(F)c2)[nH]1)c1ncc(CO)s1` (single isomer, unassigned) [Compound 123], in data set [1], the CC50 at 3 days stood at 14.5 ± 2 µM. In data set [2] (setting [4]), the IC50 came to 0.56 ± 0.03 µM.

Consider `Cc1ccc(-c2ccc(C(=O)NC(c3ncc(CO)s3)C(C)(C)N)[nH]2)cc1F` (single isomer, unassigned) [Compound 125], for which, in data set [1], the midpoint of cytotoxicity, the CC50 at 3 days, lay at 32.5 ± 0.3 µM. For the same compound, the IC50 in data set [2] (setting [4]) is 0.63 ± 0.03 µM.

Consider `COc1ccc(-c2ccc(C(=O)NC(CN)c3ncc(CO)s3)[nH]2)cc1OC` (single isomer, unassigned) [Compound 129], for which the CC50 at 3 days in data set [1] is > 74.5 µM. For the same compound, the IC50 in data set [2] (setting [4]) was > 74.5 µM.

With `O=C(NC(c1ccccc1)c1ccc[nH]1)c1ccc(-c2ccc(Cl)cc2)[nH]1` (stereo not drawn) [Compound 1], in data set [1], the CC50 at 3 days was > 53 µM.

In the case of `Nc1nc(CNC(=O)c2ccc(-c3ccc(Cl)cc3)[nH]2)n[nH]1` [Compound 2], the CC50 at 3 days in data set [1] was > 63 µM.

As to `N=C(N)Nc1ccc(CC(NC(=O)c2ccc(-c3ccc(Cl)cc3)[nH]2)C(=O)N2CCOCC2)cc1` (stereo not drawn) [Compound 3], the CC50 at 3 days in data set [1] was > 36 µM.

Consider `N=C(N)NCCCC(NC(=O)c1ccc(-c2ccc(Cl)cc2)[nH]1)C(=O)NCCO` (stereo not drawn) [Compound 4], for which the CC50 at 3 days in data set [1] was > 44 µM.

As to `N=C(N)NCCCC(NC(=O)c1ccc(-c2ccccc2)[nH]1)C(=O)NCCO` (stereo not drawn) [Compound 5], the CC50 at 3 days in data set [1] was > 47 µM.

Regarding `CS(=O)(=O)NCCNC(=O)C(CCCNC(=N)N)NC(=O)c1ccc(-c2ccc(Cl)cc2)[nH]1` (stereo not drawn) [Compound 6], the CC50 at 3 days in data set [1] is > 37 µM.

As for `CS(=O)(=O)NCCNC(=O)C(CCCNC(=N)N)NC(=O)c1ccc(-c2ccccc2)[nH]1` (stereo not drawn) [Compound 7], the CC50 at 3 days in data set [1] is > 43 µM.

As to `CN1CCN(NC(=O)C(CCCNC(=N)N)NC(=O)c2ccc(-c3ccc(Cl)cc3)[nH]2)CC1` (stereo not drawn) [Compound 8], the CC50 at 3 days in data set [1] was > 42 µM.

Turning to `N=C(N)NCCCC(NC(=O)c1ccc(-c2ccc(Cl)cc2)[nH]1)C(=O)NN1CCOCC1` (stereo not drawn) [Compound 9], the CC50 at 3 days in data set [1] is > 40 µM.

Consider `N=C(N)NCCCC(NC(=O)c1ccc(-c2ccccc2)[nH]1)C(=O)NN1CCOCC1` (stereo not drawn) [Compound 10], for which the CC50 at 3 days in data set [1] was > 43 µM.

Regarding `Cc1n[nH]c(C)c1CNC(=O)c1ccc(-c2ccc(Cl)cc2)[nH]1` [Compound 11], the CC50 at 3 days in data set [1] was ~60 µM.

In data set [1], `Cc1nccn1Cc1ccc(CNC(=O)c2ccc(-c3ccc(Cl)cc3)[nH]2)o1` [Compound 12] came in with a CC50 at 3 days of 22 ± 0.4 µM.

`CCN(CC)Cc1ccc(OC)c(CNC(=O)c2ccc(-c3ccc(Cl)cc3)[nH]2)c1` [Compound 13] had a half-maximal cytotoxic concentration (CC50) at 3 days in data set [1] of 14.2 ± 1 µM.

Regarding `NS(=O)(=O)c1ccc(CCNC(=O)c2ccc(-c3ccc(Cl)cc3)[nH]2)cc1` [Compound 14], the CC50 at 3 days in data set [1] is > 50 µM.

In data set [1], `Cc1nc(C(NC(=O)c2ccc(-c3ccc(Cl)cc3)[nH]2)C2CCCCN2)sc1CCCO` (stereo not drawn) [Compound 32] returned a CC50 at 3 days of 13.7 ± 1 µM.

For the compound `NCCNC(=O)c1ccc(-c2ccc(Cl)c(F)c2)[nH]1` [Compound 71], the CC50 at 3 days in data set [1] is 19.4 ± 0.9 µM.

Source of the values: patent publication US11059808B2, “Substituted phenylpyrrolecarboxamides with therapeutic activity in HIV” (New York Blood Center, Inc., priority 2014, dated 2021).
